Experimental data published in patent US6117845A, “C-linked analogs of N-(4-hydroxyphenyl) retinamide” (Ohio State University Research Foundation, priority 1999, dated 2000).

What was measured:
[1] = tested on: serum retinol-binding protein (RBP); experiment: Serum retinol binding protein binding study (competition with tritiated all-trans retinol); details: human RBP 0.1 μg/μl, 250 nM all-trans-(3H)-ROL, 4° C., FIG. 3
Protocol: RBP (human) was obtained commercially (Sigma). RBP (0.1 μg/μl) was incubated with 250 nM all-trans-(^3 H)-ROL (approx. 5 Ci/mmole) with and without competing ligands at 4° C. for 3 hours. Tritiated retinoid-labeled protein-containing extracts were treated with dextran-coated charcoal to remove unbound ligand before subjecting samples to sedimentation analysis on 5 to 20% sucrose density gradients. ^14 C-Labeled proteins were included with samples as internal sedimentation standards. Gradients were centrifuged at 257,000 g for 20 hours at 4° C. followed by fractionation and analysis of radioactivity.

LA1-15n cells = experiment: Assay for cell growth inhibition, LA1-15n cells, 48 h; type: cell-based; details: human neuroblastoma LA1-15n cells, 0.1, 1 or 10 μM, FIG. 2
Protocol: (§1) All-trans retinoic acid (atRA) was purchased from Eastman Kodak, Rochester, N.Y. Stock solutions were prepared in 100% ethanol and concentrations were determined on a Shimadzu UV-2100 spectrophotometer (4-HBR: λmax=380nm, ε=39,891; 4-HPR: λmax=365 nm, ε=47,900; atRA: λmax=340 nm, ε=45,300). Compound purity was assessed using a Waters HPLC-PDA with a 600E solvent delivery system using a Zorbax ODS, 250×4.6 mm, 5 micron column (Phenomenex, Torrance, Calif.). The column was equilibrated in 88% methanol/water with 10 mM ammonium acetate (flow rate of 1 ml/min). 4-HBR eluted at about 18 min., 4-HPR at about 12 min., and atRA at about 8 min with estimated purities of 96%, 100% and 100% respectively. Retinoids were blanketed with argon and stored at -70° C. until use. […]
Cells (100,000 cells) were passed into a 25 cm^3 flask in 10 ml of medium. […] Two 20 μl aliquots were counted from each treatment group on a Nikon Diaphot 200 fluorescent microscope. Four out of five fields were counted on each side of the hemocytometer. Fluorescence was used to count the number of live cells and phase-contrast was used to count the number of total cells. The average number of live cells per field was divided by the total number of cells per field and expressed as a percentage of the control. […]

Acid stability of 4-HBR = type: physicochemical; details: 0.1 N methanolic HCl at 37° C. for 2 hours
MCF7 cells = experiment: Assay for cell growth inhibition, MCF-7 cells, 72 h; type: cell-based; details: human mammary carcinoma MCF-7 cells, 0.1, 1 or 10 μM, FIG. 1
Protocol: as §1, with “respectively.” for “respectively. Retinoids were blanketed with argon and stored at -70° C. until use.”
Cells (100,000 cells) were passed into a 25 cm^3 flask in 10 ml of medium. […] Two 20 μl aliquots were counted from each treatment group on a Nikon Diaphot 200 fluorescent microscope. Four out of five fields were counted on each side of the hemocytometer. Fluorescence was used to count the number of live cells and phase-contrast was used to count the number of total cells. The average number of live cells per field was divided by the total number of cells per field and expressed as a percentage of the control.
The antiproliferative activity of 4-HPR, 4-HBR, and atRA against MCF-7 human mammary tumor cell culture models was determined using the above-described protocol. […]

stability under acidic conditions (Acid stability of 4-HBR): remained intact
SMILES: CC1=C(/C=C/C(C)=C/C=C/C(C)=C/C(=O)Cc2ccc(O)cc2)C(C)(C)CCC1 [compound 16, 4-hydroxybenzyl retinone]
affinity for serum RBP relative to 4-HPR [1]: binds to serum RBP with less affinity than does 4-HPR
growth inhibition of LA1-15n cells (viability, live cells as percentage of control) (LA1-15n cells): inhibits the growth of LA1-15n cells in a dose-dependant fashion
growth inhibition of MCF7 cells (viability, live cells as percentage of control) (MCF7 cells): inhibits the growth of MCF7 cells in a dose-dependant fashion
